Source: patent US20260015333A1, “COMPOUNDS AND METHODS FOR INHIBITION OF THE EVOLUTION OF […]” (priority 2022, published 2026)

Assays:
Assay type in all cases: cell-based
HeLa cells = assay: Mammalian cell cytotoxicity (CellTox Green); settings: during the timeframe of the infection experiment
Experimental: FIGS. 9A-9B depict the cytotoxicity of ARM-1 against indicated mammalian cell lines. FIG. 9A depicts toxicity reported from original Calibr screen data against HEK293T and HepG2 cell lines. FIG. 9B depicts toxicity determined using Promega CellTox reagents following 8 hours of exposure of HeLa, Caco-2, and HEK293 cells to varying concentrations of ARM-1. Relative fluorescent units (RFUs) reported relative to solvent and no substrate controls.
Cytotoxicity of ARM-1 against HeLa, Caco-2, and HEK293 cells was determined using CellTox Green Cytotoxicity Assay (Promega) according to manufacturer instructions. ARM-1 was diluted in DMSO and applied to the culture such that final concentrations of DMSO were less than 0.05%. Reported toxicity is relative to a DMSO only control. Cells were incubated with ARM-1 for 24 hours prior to addition of reporter dye. Fluorescence was read on a BioTek Synergy Neo plate reader.

P. aeruginosa = assay: Evolution assay of antibiotic resistance; settings: 100 μM ARM-1, rifampicin
Description: (§1) FIGS. 4A-4C depict how ARM-1 inhibits the evolution of antibiotic resistance. FIG. 4A depicts the minimum inhibitory concentration of ARM-1 in E. coli and S. aureus. FIGS. 4B-4C depict the evolution of indicated species against (FIG. 4B) rifampicin and (FIG. 4C) trimethoprim in the presence of ARM-1. Heatmaps show median MIC over time. Concentrations are indicated to the right of each plot. Each strain and antibiotic is the result of at least 12 biological replicates. Concentration of ARM-1 used against L. monocytogenes, P. aeruginosa, and S. aureus is 100 μM. Concentration of ARM-1 used against S. typhimurium is 50 μM. Populations of bacteria are grown overnight in a series of increasing antibiotic concentrations, with or without ARM-1 present. The following day, the population from the highest tolerated concentration is re-challenged with higher concentrations of antibiotic. The median MIC is determined after each 24 hour growth period as the lowest concentration of antibiotic at which at least 50% growth impairment is observed compared to an untreated population. MIC fold change is reported as the change in MIC from the first day of growth to each subsequent day.
(§2) Next, the effect of ARM-1 on the evolution of antibiotic resistance was examined. Genetic deletion of Mfd is known to reduce the rates and extent of resistance development in laboratory evolution experiments. Using an assay previously developed, the impact of ARM-1 was assessed on resistance development across diverse pathogens and in response to multiple classes of antibiotics. In these experiments, bacteria are challenged with increasing concentrations of antibiotic over a minimum of least 55 generations. Reduced resistance development in bacteria treated with ARM-1 was observed compared to those that were untreated, in all species and antibiotics tested. […] This pattern was also observed in P. aeruginosa, S. aureus, and L. monocytogenes, with ARM-1 treatment resulting in 80, […] reduction in resistance to rifampicin, respectively (FIG. 4B). […] Sequencing of relevant resistance loci over the course of treatment confirmed that these observations are due to genetic changes; many more resistance mutations arise in untreated populations compared to those treated with ARM-1 (Table 1). […] Furthermore, patient isolates of S. typhimurium, S. aureus, and P. aeruginosa which already carry resistance mutations to other antibiotics were used, and still observed a reduction in resistance development during experiments. […]
(§3) Evolution experiments were performed for the indicated strains. […] Optical densities were subsequently measured in an Epoch2 microplate spectrophotometer (BioTek). […]

S. typhimurium [1] = assay: Evolution assay of antibiotic resistance; settings: challenged with rifampicin or trimethoprim, or phosphomycin; 50 μM ARM-1
Description: as §1, §2, §3

L. monocytogenes = assay: Evolution assay of antibiotic resistance; settings: 100 μM ARM-1, rifampicin
Description: as §1, §2, §3

S. aureus = assay: Evolution assay of antibiotic resistance; settings: 100 μM ARM-1, rifampicin
Description: as §1, §2, §3

all species tested = assay: Growth curves with increasing concentrations of ARM-1; settings: across all species tested
Experimental: (§4) FIG. 10 depicts growth curves of indicated species in the presence of increasing concentrations of ARM-1. Precultures of each species were grown with appropriate antibiotic selection, then diluted back to OD600 0.05 in a 96 well plate. Indicated concentrations of ARM-1 were added, and plates incubated overnight at 37° C. with shaking. OD measurements taken every 60 s by BioTek plate reader. Data shown are representative of at least 6 biological replicates. Growth curve for S. typhimurium also confirms MIC of 400 μM ARM-1 for this species, with no growth observed over the experimental timeframe.

S. typhimurium [2] = assay: as above
Experimental: as §4

Cc1cc(Br)ccc1-c1ccc(CNCCCN(C)C)o1 [ARM-1, N^1-((5-(4-bromo-2-methylphenyl)furan-2-yl)methyl)-N^3,N^3-dimethylpropane-1,3-diamine]
cytotoxic effects on HeLa cells (HeLa cells): no cytotoxic effects
reduction in resistance to rifampicin (P. aeruginosa): 80 FOLD
difference in median MIC fold change between untreated and treated (S. typhimurium [1]): ≥ 100 fold
reduction in resistance to rifampicin (L. monocytogenes): 1000 FOLD
reduction in resistance to rifampicin (S. aureus): 800 FOLD
doubling time, treated versus untreated population (all species tested): consistent
MIC (S. typhimurium [2]; Salmonella enterica, TYPHIMURIUM, growth curve, no growth observed over the experimental timeframe): 400 µM
growth defects (S. typhimurium [2]; at the ARM-1 concentrations used for ChIP): no growth defects
